ChEMBL document CHEMBL4477227, “Synthesis and antibacterial evaluation of macrocyclic diarylheptanoid derivatives” (Bioorg Med Chem Lett, 2016)

Assays:
[1] = system: Staphylococcus aureus; assay: Antibacterial activity against methicillin-resistant Staphylococcus aureus NRS70 by microbroth dilution method; assay type: functional; details: Staphylococcus aureus, NRS70; read-out: MIC
[2] = system: Bacillus anthracis; assay: Antibacterial activity against Bacillus anthracis Sterne 34F2 by microbroth dilution method; assay type: functional; details: Bacillus anthracis, Sterne 34F2; read-out: MIC
[3] = system: Escherichia coli; assay: Antibacterial activity against Escherichia coli harboring TolC deletion mutant by microbroth dilution method; assay type: functional; details: Escherichia coli; read-out: MIC
[4] = system: Bacillus subtilis; assay: Antibacterial activity against Bacillus subtilis ATCC 23857 by microbroth dilution method; assay type: functional; details: Bacillus subtilis, ATCC 23857; read-out: MIC
[5] = system: Klebsiella pneumoniae; assay: Antibacterial activity against Klebsiella pneumoniae ATCC 33495 by microbroth dilution method; assay type: functional
[6] = system: Acinetobacter baumannii; assay: Antibacterial activity against Acinetobacter baumannii ATCC 19606 by microbroth dilution method; assay type: functional, ATCC 19606 = CIP 70.34 = JCM 6841; details: Acinetobacter baumannii, ATCC 19606 = CIP 70.34 = JCM 6841; read-out: MIC
[7] = system: Mycobacterium tuberculosis; assay: Antitubercular activity against Mycobacterium tuberculosis H37Rv by microbroth dilution method; assay type: functional; details: Mycobacterium tuberculosis, H37Rv; read-out: MIC
[8] = system: Pseudomonas aeruginosa; assay: Antibacterial activity against Pseudomonas aeruginosa PAO1 by microbroth dilution method; assay type: functional
[9] = system: Staphylococcus aureus; assay: Antibacterial activity against methicillin-sensitive Staphylococcus aureus ATCC 29213 by microbroth dilution method; assay type: functional; details: Staphylococcus aureus, ATCC 29213; read-out: MIC
[10] = system: Enterococcus faecalis; assay: Antibacterial activity against Enterococcus faecalis ATCC 33186 by microbroth dilution method; assay type: functional; details: Enterococcus faecalis, ATCC 33186; read-out: MIC
[11] = system: Proteus vulgaris; assay: Antibacterial activity against Proteus vulgaris ATCC 33420 by microbroth dilution method; assay type: functional
[12] = system: Streptococcus pneumoniae; assay: Antibacterial activity against Streptococcus pneumoniae R6 by microbroth dilution method; assay type: functional; details: Streptococcus pneumoniae, R6; read-out: MIC
[13] = system: Proteus mirabilis; assay: Antibacterial activity against Proteus mirabilis ATCC 25933 by microbroth dilution method; assay type: functional
[14] = system: Streptococcus pyogenes; assay: Antibacterial activity against Streptococcus pyogenes ATCC 700294 by microbroth dilution method; assay type: functional; details: Streptococcus pyogenes, ATCC 700294; read-out: MIC
[15] = system: Escherichia coli; assay: Antibacterial activity against Escherichia coli K-12 by microbroth dilution method; assay type: functional
[16] = system: Burkholderia cepacia; assay: Antibacterial activity against Burkholderia cepacia ATCC 25416 by microbroth dilution method; assay type: functional

Measured: MIC

COc1ccc2cc1Oc1cc(ccc1OC)CCC(NCCc1ccc(F)cc1)CC2
50 µg/mL: [3] | [4] | [7] | [9]
> 100 µg/mL: [5] | [8] | [11] | [13] | [15] | [16]
100 µg/mL: all other assays above

COc1ccc2cc1Oc1cc(ccc1OC)CCC(OC(C)=O)CCCC2 (stereo not given)
12.5 µg/mL: [3]
> 100 µg/mL: all other assays above

COc1ccc2cc1Oc1cc(ccc1OC)CCC(OC(=O)CCc1ccccc1)CCCC2 (stereo not given)
> 100 µg/mL: all assays above

COc1ccc2cc1Oc1cc(ccc1OC)CCC(NCCc1ccccc1F)CCCC2 (stereo not given)
100 µg/mL: [6]
50 µg/mL: [2] | [9] | [12] | [14]
12.5 µg/mL: [4]
25 µg/mL: [1] | [3] | [7] | [10]
> 100 µg/mL: all other assays above

COc1ccc2cc1Oc1cc(ccc1OC)CCC(Nc1ccc(Cl)cc1)CCCC2 (stereo not given)
> 100 µg/mL: all assays above

COc1ccc2cc1Oc1cc(ccc1OC)CCC(NCCc1ccc3c(c1)OCO3)CCCC2 (stereo not given)
25 µg/mL: [1] | [7]
50 µg/mL: [2] | [9] | [10] | [12]
12.5 µg/mL: [3] | [4] | [14]
> 100 µg/mL: all other assays above

COc1ccc2cc1Oc1cc(ccc1OC)CCC(N1CCN(C)CC1)CCCC2 (stereo not given)
100 µg/mL: [2] | [6] | [9] | [10] | [12]
50 µg/mL: [1] | [3] | [4] | [7]
> 100 µg/mL: all other assays above

COc1ccc2cc1Oc1cc(ccc1OC)CCC(N(CCO)CCO)CCCC2 (stereo not given)
> 100 µg/mL: all assays above

COc1ccc2cc1Oc1cc(ccc1OC)CCC(NCCN(C)C)CCCC2 (stereo not given)
100 µg/mL: [4] | [7]
> 100 µg/mL: all other assays above

COc1ccc2cc1Oc1cc(ccc1OC)CCC(NCCc1ccc(O)cc1)CCCC2 (stereo not given)
50 µg/mL: [2] | [4]
100 µg/mL: [1] | [3] | [7] | [10] | [12] | [14]
> 100 µg/mL: all other assays above
